# Experimental data published in patent US10030020B2, “Spirocycle compounds and methods of making and using same” (Abide Therapeutics, Inc., priority 2016, dated 2018).
# pIC50: −log10 of the molar value.
# Legend:
# ABHD6 [1] = target: T1, ABHD6 (Mus musculus (Mouse), UniProt Q8R2Y0); assay: Mouse brain proteomes from inhibitor treated mice (oral gavage, sacrificed 4 h after administration, ABPP analysis), ABHD6; format: in vivo, mouse (C57Bl/6J); conditions: 5 mg/kg oral gavage
# Summary of the method: (§1)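 Mice (wild-type C57Bl/6J) receive inhibitor by oral gavage, e.g. in PEG400/Ethanol/PBS (7/2/1). Each animal is killed 4 h later. Brain proteomes are prepared and analyzed by ABPP, giving % inhibition at 5 mg/kg.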
# MAGL [2] = target: T2, MAGL (Mus musculus (Mouse), UniProt O35678); assay: Mouse brain proteomes from inhibitor treated mice (oral gavage, sacrificed 4 h after administration, ABPP analysis); format: in vivo, mouse (C57Bl/6J); conditions: 5 mg/kg oral gavage
# Summary of the method: as §1
# ABHD6 [3] = target: T1, ABHD6; assay: In vitro competitive activity-based protein profiling (mouse brain membrane fraction or cell lysates), ABHD6 band; format: biochemical; conditions: mouse proteome; for pIC50: competitive ABPP; for inhibition at 1 µM: read-out: ABHD6 % Inh 1 μM (mouse)
# Summary of the method: (§2)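 Competitive ABPP: proteome 1.0 mg/mL protein + inhibitor, 30 min, 37° C; FP-Rh probe (stock 50 μM in DMSO) added, 30 min, 37° C; SDS quench, SDS-PAGE, fluorescent band intensity read.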
# FAAH [4] = target: T3, FAAH (Mus musculus (Mouse), UniProt O08914); assay: In vitro competitive activity-based protein profiling (mouse brain membrane fraction or cell lysates), FAAH band; format: biochemical; conditions: mouse proteome; for pIC50: competitive ABPP; for inhibition at 1 µM: read-out: FAAH % Inh 1 μM (mouse)
# Summary of the method: as §2
# MAGL [5] = target: T2, MAGL; assay: In vitro competitive activity-based protein profiling (mouse brain membrane fraction or cell lysates), MAGL band; format: biochemical; conditions: mouse proteome; for pIC50: competitive ABPP; for inhibition at 1 µM: read-out: MAGL % Inh 1 μM (mouse)
# Experimental: In Vitro Competitive Activity-Based Protein Profiling.
# Proteomes (mouse brain membrane fraction or cell lysates) (50 μL, 1.0 mg/mL total protein concentration) were preincubated with varying concentrations of inhibitors at 37° C. After 30 min, FP—Rh (1.0 μL, 50 μM in DMSO) was added and the mixture was incubated for another 30 min at 37° C. Reactions were quenched with SDS loading buffer (50 μL-4×) and run on SDS-PAGE.
# FAAH [6] = target: T3, FAAH; assay: Mouse brain proteomes from inhibitor treated mice (oral gavage, sacrificed 4 h after administration, ABPP analysis), FAAH; format: in vivo, mouse (C57Bl/6J); conditions: 5 mg/kg oral gavage
# Summary of the method: as §1
# T2 sequence (O35678 whole entry): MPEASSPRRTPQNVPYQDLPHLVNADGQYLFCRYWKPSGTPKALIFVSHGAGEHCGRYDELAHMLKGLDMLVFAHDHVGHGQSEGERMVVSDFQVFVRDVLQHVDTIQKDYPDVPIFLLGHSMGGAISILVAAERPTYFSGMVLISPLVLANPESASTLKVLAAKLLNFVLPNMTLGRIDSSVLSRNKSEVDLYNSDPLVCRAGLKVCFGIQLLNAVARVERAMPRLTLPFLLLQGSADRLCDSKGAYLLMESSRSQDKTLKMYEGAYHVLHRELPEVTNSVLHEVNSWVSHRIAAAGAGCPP
# T1 sequence (Q8R2Y0 whole entry): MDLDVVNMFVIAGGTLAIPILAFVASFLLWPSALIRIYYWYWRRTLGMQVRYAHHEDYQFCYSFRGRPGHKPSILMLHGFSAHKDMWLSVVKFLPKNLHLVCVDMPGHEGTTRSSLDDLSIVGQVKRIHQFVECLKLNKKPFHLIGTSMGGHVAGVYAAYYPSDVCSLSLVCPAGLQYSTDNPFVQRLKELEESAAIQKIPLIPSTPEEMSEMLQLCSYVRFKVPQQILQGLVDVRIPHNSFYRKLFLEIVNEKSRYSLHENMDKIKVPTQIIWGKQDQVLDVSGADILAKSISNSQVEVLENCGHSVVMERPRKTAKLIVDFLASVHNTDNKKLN
# T3 sequence (O08914 whole entry): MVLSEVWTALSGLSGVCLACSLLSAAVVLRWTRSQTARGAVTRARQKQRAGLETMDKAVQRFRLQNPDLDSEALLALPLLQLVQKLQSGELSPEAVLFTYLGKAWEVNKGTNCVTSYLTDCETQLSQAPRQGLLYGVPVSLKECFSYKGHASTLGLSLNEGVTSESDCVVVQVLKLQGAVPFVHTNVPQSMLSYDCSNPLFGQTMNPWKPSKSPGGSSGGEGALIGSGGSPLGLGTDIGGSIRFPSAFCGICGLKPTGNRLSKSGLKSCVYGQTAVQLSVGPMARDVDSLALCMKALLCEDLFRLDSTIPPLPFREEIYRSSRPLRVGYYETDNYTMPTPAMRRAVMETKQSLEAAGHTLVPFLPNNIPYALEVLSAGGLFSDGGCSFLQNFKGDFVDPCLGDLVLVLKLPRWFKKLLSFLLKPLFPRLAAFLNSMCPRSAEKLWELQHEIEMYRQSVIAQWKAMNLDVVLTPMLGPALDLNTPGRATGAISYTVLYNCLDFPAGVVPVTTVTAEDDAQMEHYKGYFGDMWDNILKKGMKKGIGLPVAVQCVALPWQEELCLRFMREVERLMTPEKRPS
ABHD6 % Inh 5 mg/kg (mouse) (ABHD6 [1]),MAGL % Inh 5 mg/kg (mouse) (MAGL [2]),pIC50 (ABHD6 [3]),pIC50 (FAAH [4]),pIC50 (MAGL [5]),FAAH % Inh 5 mg/kg (mouse) (FAAH [6]),inhibition at 1 µM (ABHD6 [3]) [%],inhibition at 1 µM (FAAH [4]) [%],inhibition at 1 µM (MAGL [5]) [%],SMILES
# (# is <25%),### (### is ≥75%),< 6.00,< 6.00,> 7.00,# (# is <25%),,,,"O=C(OC(C(F)(F)F)C(F)(F)F)N1CCC2(CCCN2Cc2cc(N3CC4COCC4C3)cc(C(F)(F)F)c2)CC1 (stereo not drawn) [Example 46, 1,1,1,3,3,3-Hexafluoropropan-2-yl 1-(3-(tetrahydro-1H-furo[3,4-c]pyrrol-5(3H)-yl)-5-(trifluoromethyl)benzyl)-1,8-diazaspiro[4.5]decane-8-carboxylate]"
# (# is <25%),### (### is ≥75%),< 6.00,< 6.00,> 7.00,# (# is <25%),< 25,< 25,> 75,"O=C(OC(C(F)(F)F)C(F)(F)F)N1CCC2(CCCN2Cc2cc(N3CCC3)cc(C(F)(F)F)c2)CC1 [Example 47, 1,1,1,3,3,3-Hexafluoropropan-2-yl 1-(3-(azetidin-1-yl)-5-(trifluoromethyl)benzyl)-1,8-diazaspiro[4.5]decane-8-carboxylate]"
# (# is <25%),# (# is <25%),< 6.00,< 6.00,> 7.00,# (# is <25%),< 25,< 25,> 75,"CC1(C)CC2(CCN(C(=O)OC(C(F)(F)F)C(F)(F)F)CC2)CN1Cc1ccc(C(F)(F)F)cc1N1CCC2(CCOCC2)C1 [Example 52, 1,1,1,3,3,3-Hexafluoropropan-2-yl 2-(2-(8-oxa-2-azaspiro[4.5]decan-2-yl)-4-(trifluoromethyl)benzyl)-3,3-dimethyl-2,8-diazaspiro[4.5]decane-8-carboxylate]"
# (# is <25%),### (### is ≥75%),< 6.00,< 6.00,> 7.00,### (### is ≥75%),25 to 75,25 to 75,> 75,"O=C(OC(C(F)(F)F)C(F)(F)F)N1CCC2(CCCN2Cc2cccc(Cl)c2)CC1 [Example 61, 1,1,1,3,3,3-Hexafluoropropan-2-yl 1-(3-chlorobenzyl)-1,8-diazaspiro[4.5]decane-8-carboxylate]"

SMILES,ABHD6 % Inh 5 mg/kg (mouse) (ABHD6 [1]),MAGL % Inh 5 mg/kg (mouse) (MAGL [2]),pIC50 (ABHD6 [3]),pIC50 (FAAH [4]),pIC50 (MAGL [5]),FAAH % Inh 5 mg/kg (mouse) (FAAH [6]),inhibition at 1 µM (ABHD6 [3]) [%],inhibition at 1 µM (FAAH [4]) [%],inhibition at 1 µM (MAGL [5]) [%]
"O=C(OC(C(F)(F)F)C(F)(F)F)N1CCC2(CCCN2Cc2cc(N3CCC(F)CC3)cc(C(F)(F)F)c2)CC1 [Example 45, 1,1,1,3,3,3-Hexafluoropropan-2-yl 1-(3-(4-fluoropiperidin-1-yl)-5-(trifluoromethyl)benzyl)-1,8-diazaspiro[4.5]decane-8-carboxylate]",# (# is <25%),## (## is equal to or greater than 25% but less than 75%),< 6.00,< 6.00,> 7.00,# (# is <25%),,,
"CC1(C)CC2(CCN(C(=O)OC(C(F)(F)F)C(F)(F)F)CC2)CN1Cc1ccc(Cl)cc1 [Example 48, 1,1,1,3,3,3-Hexafluoropropan-2-yl 2-(4-chlorobenzyl)-3,3-dimethyl-2,8-diazaspiro[4.5]decane-8-carboxylate]",## (## is equal to or greater than 25% but less than 75%),### (### is ≥75%),6.00 to 7.00,< 6.00,> 7.00,# (# is <25%),≥ 75,< 25,> 75
"CC1(C)CC2(CCN(C(=O)OC(C(F)(F)F)C(F)(F)F)CC2)CN1Cc1ccc(Cl)cc1N1CCOCC1 [Example 50, 1,1,1,3,3,3-Hexafluoropropan-2-yl 2-(4-chloro-2-morpholinobenzyl)-3,3-dimethyl-2,8-diazaspiro[4.5]decane-8-carboxylate]",# (# is <25%),## (## is equal to or greater than 25% but less than 75%),< 6.00,< 6.00,> 7.00,# (# is <25%),25 to 75,< 25,> 75
"CC1(C)CC2(CCN(C(=O)OC(C(F)(F)F)C(F)(F)F)CC2)CN1Cc1ccc(C(F)(F)F)cc1N1CCOCC1 [Example 51, 1,1,1,3,3,3-Hexafluoropropan-2-yl 3,3-dimethyl-2-(2-morpholino-4-(trifluoromethyl)benzyl)-2,8-diazaspiro[4.5]decane-8-carboxylate]",# (# is <25%),## (## is equal to or greater than 25% but less than 75%),< 6.00,< 6.00,> 7.00,# (# is <25%),< 25,< 25,> 75
"CC1(C)CC2(CCN(C(=O)OC(C(F)(F)F)C(F)(F)F)CC2)CN1Cc1cccc(Cl)c1N1CCOCC1 [Example 54, 1,1,1,3,3,3-Hexafluoropropan-2-yl 2-(3-chloro-2-morpholinobenzyl)-3,3-dimethyl-2,8-diazaspiro[4.5]decane-8-carboxylate]",# (# is <25%),## (## is equal to or greater than 25% but less than 75%),< 6.00,< 6.00,> 7.00,# (# is <25%),< 25,< 25,> 75
"O=C(OC(C(F)(F)F)C(F)(F)F)N1CCC2(CCCN2Cc2ccccc2Cl)CC1 [Example 60, 1,1,1,3,3,3-Hexafluoropropan-2-yl 1-(2-chlorobenzyl)-1,8-diazaspiro[4.5]decane-8-carboxylate]",# (# is <25%),### (### is ≥75%),< 6.00,< 6.00,> 7.00,## (## is equal to or greater than 25% but less than 75%),< 25,< 25,> 75
"O=C(OC(C(F)(F)F)C(F)(F)F)N1CCC2(CCCN2Cc2ccc(Cl)cc2)CC1 [Example 62, 1,1,1,3,3,3-Hexafluoropropan-2-yl 1-(4-chlorobenzyl)-1,8-diazaspiro[4.5]decane-8-carboxylate]",## (## is equal to or greater than 25% but less than 75%),### (### is ≥75%),< 6.00,< 6.00,> 7.00,## (## is equal to or greater than 25% but less than 75%),< 25,< 25,> 75
"O=C(OC(C(F)(F)F)C(F)(F)F)N1CCC2(CCN(Cc3cccc(Cl)c3N3CCC(F)(F)CC3)C2)CC1 [Example 64, 1,1,1,3,3,3-Hexafluoropropan-2-yl 2-(3-chloro-2-(4,4-difluoropiperidin-1-yl)benzyl)-2,8-diazaspiro[4.5]decane-8-carboxylate]",# (# is <25%),## (## is equal to or greater than 25% but less than 75%),< 6.00,< 6.00,> 7.00,# (# is <25%),< 25,< 25,> 75
